Experimental data from the NIST ThermoML archive (doi:10.1016/j.tca.2006.04.016).

Assay: xn = mol fraction of the nth substance listed
Details: 101 kPa, Liquid, Vibrating tube method, x1 = 1

O [water] + CN(C)CCCN
Details | mass density [kg/m3]
283.15 K | 999.7
323.15 K | 988.03
328.15 K | 985.69
333.15 K | 983.191
338.15 K | 980.55
343.15 K | 977.76
348.15 K | 974.84
353.15 K | 971.79
